Laboratory results published in patent publication US11767341B2, “Lincosamide antibiotics and uses thereof” (President and Fellows of Harvard College, priority 2017, dated 2023).
Converted amounts (≈) assume the structure as drawn.

system: P. aeruginosa ATCC 27853; assay: MIC determination; assay type: cell-based; settings: Pseudomonas aeruginosa, ATCC27853

Row | SMILES | MIC [µg/mL]
1 | CSC1O[C@H]([C@H](NC(=O)[C@H]2NC[C@@H]3C=C(c4ccccc4)CCO[C@@H]23)[C@H](C)Cl)C(O)[C@@H](O)[C@H]1O (stereo partly shown) [FSA-507031] | > 32
2 | C[C@@H](O)[C@@H](NC(=O)[C@H]1NC[C@@H]2CC=CCO[C@H]21)[C@H]1OC(CN=[N+]=[N-])[C@H](O)[C@H](O)C1O (stereo partly shown) [FSA-211064] | > 64

system: S. aureus BAA 977 iErmA; assay: MIC determination; assay type: cell-based; settings: Staphylococcus aureus, BAA977

Row | SMILES | MIC [µg/mL]
3 | CSC1O[C@H]([C@H](NC(=O)[C@H]2NC[C@@H]3C=C(c4ccccc4)CCO[C@@H]23)[C@H](C)Cl)C(O)[C@@H](O)[C@H]1O (stereo partly shown) [FSA-507031] | > 32
4 | C[C@@H](O)[C@@H](NC(=O)[C@H]1NC[C@@H]2CC=CCO[C@H]21)[C@H]1OC(CN=[N+]=[N-])[C@H](O)[C@H](O)C1O (stereo partly shown) [FSA-211064] | > 64

system: S. pneumoniae MMX 3028 cErmB; assay: MIC determination; assay type: cell-based; settings: Streptococcus pneumoniae, MMX3028CERMB

Row | SMILES | MIC [µg/mL]
5 | CSC1O[C@H]([C@H](NC(=O)[C@H]2NC[C@@H]3C=C(c4ccccc4)CCO[C@@H]23)[C@H](C)Cl)C(O)[C@@H](O)[C@H]1O (stereo partly shown) [FSA-507031] | > 32
6 | C[C@@H](O)[C@@H](NC(=O)[C@H]1NC[C@@H]2CC=CCO[C@H]21)[C@H]1OC(CN=[N+]=[N-])[C@H](O)[C@H](O)C1O (stereo partly shown) [FSA-211064] | > 64

system: E. coli MMX 0121 ΔTolC; assay: MIC determination; assay type: cell-based; settings: Escherichia coli

Row | SMILES | MIC [µg/mL]
7 | CSC1O[C@H]([C@H](NC(=O)[C@H]2NC[C@@H]3C=C(c4ccccc4)CCO[C@@H]23)[C@H](C)Cl)C(O)[C@@H](O)[C@H]1O (stereo partly shown) [FSA-507031] | > 32
8 | C[C@@H](O)[C@@H](NC(=O)[C@H]1NC[C@@H]2CC=CCO[C@H]21)[C@H]1OC(CN=[N+]=[N-])[C@H](O)[C@H](O)C1O (stereo partly shown) [FSA-211064] | > 64

system: C. difficile BAA 1805; assay: MIC determination; assay type: cell-based; settings: Clostridioides difficile, BAA1805

Row | SMILES | MIC [µg/mL]
9 | CSC1O[C@H]([C@H](NC(=O)[C@H]2NC[C@@H]3C=C(c4ccccc4)CCO[C@@H]23)[C@H](C)Cl)C(O)[C@@H](O)[C@H]1O (stereo partly shown) [FSA-507031] | > 32

same assay, conditions: Clostridioides difficile, BAA1805; C. difficile BAA 1805; read-out: MIC

Row | SMILES | MIC [µg/mL]
10 | C[C@@H](O)[C@@H](NC(=O)[C@H]1NC[C@@H]2CC=CCO[C@H]21)[C@H]1OC(CN=[N+]=[N-])[C@H](O)[C@H](O)C1O (stereo partly shown) [FSA-211064] | 64 (≈ 150 µM)

system: E. coli MMX TolC parent strain; assay: MIC determination; assay type: cell-based; settings: Escherichia coli

Row | SMILES | MIC [µg/mL]
11 | CSC1O[C@H]([C@H](NC(=O)[C@H]2NC[C@@H]3C=C(c4ccccc4)CCO[C@@H]23)[C@H](C)Cl)C(O)[C@@H](O)[C@H]1O (stereo partly shown) [FSA-507031] | > 32
12 | C[C@@H](O)[C@@H](NC(=O)[C@H]1NC[C@@H]2CC=CCO[C@H]21)[C@H]1OC(CN=[N+]=[N-])[C@H](O)[C@H](O)C1O (stereo partly shown) [FSA-211064] | > 64

system: E. faecalis ATCC 29212; assay: MIC determination; assay type: cell-based; settings: Enterococcus faecalis, ATCC29212

Row | SMILES | MIC [µg/mL]
13 | CSC1O[C@H]([C@H](NC(=O)[C@H]2NC[C@@H]3C=C(c4ccccc4)CCO[C@@H]23)[C@H](C)Cl)C(O)[C@@H](O)[C@H]1O (stereo partly shown) [FSA-507031] | > 32
14 | C[C@@H](O)[C@@H](NC(=O)[C@H]1NC[C@@H]2CC=CCO[C@H]21)[C@H]1OC(CN=[N+]=[N-])[C@H](O)[C@H](O)C1O (stereo partly shown) [FSA-211064] | > 64

system: P. aeruginosa MMX 3476 Δmex; assay: MIC determination; assay type: cell-based; settings: Pseudomonas aeruginosa

Row | SMILES | MIC [µg/mL]
15 | CSC1O[C@H]([C@H](NC(=O)[C@H]2NC[C@@H]3C=C(c4ccccc4)CCO[C@@H]23)[C@H](C)Cl)C(O)[C@@H](O)[C@H]1O (stereo partly shown) [FSA-507031] | > 32
16 | C[C@@H](O)[C@@H](NC(=O)[C@H]1NC[C@@H]2CC=CCO[C@H]21)[C@H]1OC(CN=[N+]=[N-])[C@H](O)[C@H](O)C1O (stereo partly shown) [FSA-211064] | > 64

system: E. coli ATCC 25922; assay: MIC determination; assay type: cell-based; settings: Escherichia coli, ATCC25922

Row | SMILES | MIC [µg/mL]
17 | CSC1O[C@H]([C@H](NC(=O)[C@H]2NC[C@@H]3C=C(c4ccccc4)CCO[C@@H]23)[C@H](C)Cl)C(O)[C@@H](O)[C@H]1O (stereo partly shown) [FSA-507031] | > 32
18 | C[C@@H](O)[C@@H](NC(=O)[C@H]1NC[C@@H]2CC=CCO[C@H]21)[C@H]1OC(CN=[N+]=[N-])[C@H](O)[C@H](O)C1O (stereo partly shown) [FSA-211064] | > 64

system: S. aureus MMX 3035 cErmA; assay: MIC determination; assay type: cell-based; settings: Staphylococcus aureus, MMX3035CERMA

Row | SMILES | MIC [µg/mL]
19 | CSC1O[C@H]([C@H](NC(=O)[C@H]2NC[C@@H]3C=C(c4ccccc4)CCO[C@@H]23)[C@H](C)Cl)C(O)[C@@H](O)[C@H]1O (stereo partly shown) [FSA-507031] | > 32
20 | C[C@@H](O)[C@@H](NC(=O)[C@H]1NC[C@@H]2CC=CCO[C@H]21)[C@H]1OC(CN=[N+]=[N-])[C@H](O)[C@H](O)C1O (stereo partly shown) [FSA-211064] | > 64

system: S. pyogenes ATCC 19615; assay: MIC determination; assay type: cell-based; settings: Streptococcus pyogenes, ATCC19615; S. pyogenes ATCC 19615; read-out: MIC

Row | SMILES | MIC [µg/mL]
21 | CSC1O[C@H]([C@H](NC(=O)[C@H]2NC[C@@H]3C=C(c4ccccc4)CCO[C@@H]23)[C@H](C)Cl)C(O)[C@@H](O)[C@H]1O (stereo partly shown) [FSA-507031] | 32 (≈ 62.4 µM)
22 | C[C@@H](O)[C@@H](NC(=O)[C@H]1NC[C@@H]2CC=CCO[C@H]21)[C@H]1OC(CN=[N+]=[N-])[C@H](O)[C@H](O)C1O (stereo partly shown) [FSA-211064] | 4 (≈ 9.36 µM)

system: P. aeruginosa MMX Mex parent strain; assay: MIC determination; assay type: cell-based; settings: Pseudomonas aeruginosa

Row | SMILES | MIC [µg/mL]
23 | CSC1O[C@H]([C@H](NC(=O)[C@H]2NC[C@@H]3C=C(c4ccccc4)CCO[C@@H]23)[C@H](C)Cl)C(O)[C@@H](O)[C@H]1O (stereo partly shown) [FSA-507031] | > 32
24 | C[C@@H](O)[C@@H](NC(=O)[C@H]1NC[C@@H]2CC=CCO[C@H]21)[C@H]1OC(CN=[N+]=[N-])[C@H](O)[C@H](O)C1O (stereo partly shown) [FSA-211064] | > 64

system: E. faecalis MMX 847 Macrolide-Resistant; assay: MIC determination; assay type: cell-based; settings: Enterococcus faecalis

Row | SMILES | MIC [µg/mL]
25 | CSC1O[C@H]([C@H](NC(=O)[C@H]2NC[C@@H]3C=C(c4ccccc4)CCO[C@@H]23)[C@H](C)Cl)C(O)[C@@H](O)[C@H]1O (stereo partly shown) [FSA-507031] | > 32
26 | C[C@@H](O)[C@@H](NC(=O)[C@H]1NC[C@@H]2CC=CCO[C@H]21)[C@H]1OC(CN=[N+]=[N-])[C@H](O)[C@H](O)C1O (stereo partly shown) [FSA-211064] | > 64

system: S. aureus ATCC 29213; assay: MIC determination; assay type: cell-based; settings: Staphylococcus aureus, ATCC29213

Row | SMILES | MIC [µg/mL]
27 | CSC1O[C@H]([C@H](NC(=O)[C@H]2NC[C@@H]3C=C(c4ccccc4)CCO[C@@H]23)[C@H](C)Cl)C(O)[C@@H](O)[C@H]1O (stereo partly shown) [FSA-507031] | > 32
28 | C[C@@H](O)[C@@H](NC(=O)[C@H]1NC[C@@H]2CC=CCO[C@H]21)[C@H]1OC(CN=[N+]=[N-])[C@H](O)[C@H](O)C1O (stereo partly shown) [FSA-211064] | > 64

system: S. pneumoniae ATCC 49619; assay: MIC determination; assay type: cell-based; settings: Streptococcus pneumoniae, ATCC49619; S. pneumoniae ATCC 49619; read-out: MIC

Row | SMILES | MIC [µg/mL]
29 | CSC1O[C@H]([C@H](NC(=O)[C@H]2NC[C@@H]3C=C(c4ccccc4)CCO[C@@H]23)[C@H](C)Cl)C(O)[C@@H](O)[C@H]1O (stereo partly shown) [FSA-507031] | 32 (≈ 62.4 µM)
30 | C[C@@H](O)[C@@H](NC(=O)[C@H]1NC[C@@H]2CC=CCO[C@H]21)[C@H]1OC(CN=[N+]=[N-])[C@H](O)[C@H](O)C1O (stereo partly shown) [FSA-211064] | 16 (≈ 37.4 µM)

system: S. pyogenes MMX 946 Macrolide-Resistant; assay: MIC determination; assay type: cell-based; settings: Streptococcus pyogenes

Row | SMILES | MIC [µg/mL]
31 | CSC1O[C@H]([C@H](NC(=O)[C@H]2NC[C@@H]3C=C(c4ccccc4)CCO[C@@H]23)[C@H](C)Cl)C(O)[C@@H](O)[C@H]1O (stereo partly shown) [FSA-507031] | > 32
32 | C[C@@H](O)[C@@H](NC(=O)[C@H]1NC[C@@H]2CC=CCO[C@H]21)[C@H]1OC(CN=[N+]=[N-])[C@H](O)[C@H](O)C1O (stereo partly shown) [FSA-211064] | > 64

system: B. fragilis ATCC 25285; assay: MIC determination; assay type: cell-based; settings: Bacteroides fragilis, ATCC25285

Row | SMILES | MIC [µg/mL]
33 | C[C@@H](O)[C@@H](NC(=O)[C@H]1NC[C@@H]2CC=CCO[C@H]21)[C@H]1OC(CN=[N+]=[N-])[C@H](O)[C@H](O)C1O (stereo partly shown) [FSA-211064] | > 64

same assay, conditions: Bacteroides fragilis, ATCC25285; B. fragilis ATCC 25285; read-out: MIC

Row | SMILES | MIC [µg/mL]
34 | CSC1O[C@H]([C@H](NC(=O)[C@H]2NC[C@@H]3C=C(c4ccccc4)CCO[C@@H]23)[C@H](C)Cl)C(O)[C@@H](O)[C@H]1O (stereo partly shown) [FSA-507031] | 32 (≈ 62.4 µM)

system: S. aureus Micromyx USA 300; assay: MIC determination; assay type: cell-based; settings: Staphylococcus aureus, USA300

Row | SMILES | MIC [µg/mL]
35 | CSC1O[C@H]([C@H](NC(=O)[C@H]2NC[C@@H]3C=C(c4ccccc4)CCO[C@@H]23)[C@H](C)Cl)C(O)[C@@H](O)[C@H]1O (stereo partly shown) [FSA-507031] | > 32
36 | C[C@@H](O)[C@@H](NC(=O)[C@H]1NC[C@@H]2CC=CCO[C@H]21)[C@H]1OC(CN=[N+]=[N-])[C@H](O)[C@H](O)C1O (stereo partly shown) [FSA-211064] | > 64

system: H. influenzae ATCC 49247; assay: MIC determination; assay type: cell-based; settings: Haemophilus influenzae, ATCC49247

Row | SMILES | MIC [µg/mL]
37 | C[C@@H](O)[C@@H](NC(=O)[C@H]1NC[C@@H]2CC=CCO[C@H]21)[C@H]1OC(CN=[N+]=[N-])[C@H](O)[C@H](O)C1O (stereo partly shown) [FSA-211064] | > 64

same assay, conditions: Haemophilus influenzae, ATCC49247; H. influenzae ATCC 49247; read-out: MIC

Row | SMILES | MIC [µg/mL]
38 | CSC1O[C@H]([C@H](NC(=O)[C@H]2NC[C@@H]3C=C(c4ccccc4)CCO[C@@H]23)[C@H](C)Cl)C(O)[C@@H](O)[C@H]1O (stereo partly shown) [FSA-507031] | 8 (≈ 15.6 µM)

system: S. pneumoniae MMX 3031 cMefA; assay: MIC determination; assay type: cell-based; settings: Streptococcus pneumoniae, MMX3031CMEFA

Row | SMILES | MIC [µg/mL]
39 | CSC1O[C@H]([C@H](NC(=O)[C@H]2NC[C@@H]3C=C(c4ccccc4)CCO[C@@H]23)[C@H](C)Cl)C(O)[C@@H](O)[C@H]1O (stereo partly shown) [FSA-507031] | 16 (≈ 31.2 µM)
40 | C[C@@H](O)[C@@H](NC(=O)[C@H]1NC[C@@H]2CC=CCO[C@H]21)[C@H]1OC(CN=[N+]=[N-])[C@H](O)[C@H](O)C1O (stereo partly shown) [FSA-211064] | 16 (≈ 37.4 µM)
